Data as given in US20250002954A1, “Novel Compound, Use Thereof, and Method for Producing Same, and Compound-Containing Composition, Method for Producing 4-Trehalosamine, and Microorganism” (Microbial Chemistry Research Foundation, priority 2021, published 2025).

How the values were obtained:
[1] = test system: aggregated proteins Q74 and SynA53T in SH-SY5Y cells and NH-12 cells; assay: Elimination effect on aggregated protein in cells (Q74, SynA53T); format: cell-based, human; conditions: 100 mM 4-trehalosamine, 70 μM IMCTA-C14 or 100 mM trehalose, 14 hours; SH-SY5Y and NH-12 cells
Experimental: The effect of 4-trehalosamine or trehalose analog on Q74, which is partial peptide of huntingtin (Htt), the causal protein of Huntington's disease, and SynA53T, which is a mutation of α-synuclein, the causal protein of Parkinson's disease, (both aggregated proteins) was determined in the following manner.
Neuroblastoma cells SH-SY5Y (obtained from European Collection of Authenticated Cell Cultures (ECACC)) and human neuroblastoma cells NH-12 (obtained from RIKEN BRC) were each inoculated at 14×10^4 cells/mL and cultured in DMEM culture medium at 37° C. for 48 hours.
After the culture of SH-SY5Y cells and NH-12 cells, pEGFP-Q74 vector or EGFP-alphasynuclein-A53T (both obtained from addgene), which are expression vectors of aggregated protein, were transfected with transfection reagent (Viafect, manufactured by Promega). After 24 hours from the transfection, 100 mM 4-trehalosamine, 70 μM IMCTA-C14, or 100 mM trehalose was added and the cells were further treated for 14 hours. Untreated cells without addition of the compounds were used as control. After washing the cells three times with PBS, hyposmotic fluid (solution of one tablet of cOmplete, Mini, EDTA-free Protease Inhibitor Cocktail (CM, manufactured by Merck) in 50 mL of pure water) was added and the mixture was shaken on ice for 10 minutes. It was then centrifuged at 21,300×g for 10 minutes to be separated into soluble protein (Sol) and aggregated protein (Agg) […]. Thereafter, they were turned into samples for western blotting in a similar manner to test example 10-1.
The western blotting was performed in a similar manner to test example 4 except that anti-GFP antibody (manufactured by Proteintech) was used at 1/5,000 dilution and anti-LC3 antibody (manufactured by Cell Signaling Technology) was used at 1/2,000 dilution as the primary antibodies in the method described in test example 4. The results for neuroblastoma cells SH-SY5Y are shown in FIGS. 22A and 22B, and the results for human neuroblastoma cells NH-12 are shown in FIGS. 22C and 22D. […]

[2] = test system: blood glucose level; assay: Change in blood glucose level after oral administration to mice; format: in vivo, ICR mice; conditions: single oral dose 0.5 mg per g of body weight, fasted
Experimental: 4-trehalosamine or trehalose dissolved in saline at 0.5 mg/10 μL per g of body weight was orally administered in a single dose to ICR mice (9-week to 10-week old, female, n=5) that had been fasted overnight. The five mice on which the same treatment had been performed were placed in the same cage.
In a 96-well plate, the centrifuged supernatant sample of dilution of blood with methanol prepared in <Determination of blood level of 4-trehalosamine> (a sample similar to the sample used in the LC-MS analysis) was placed at 5 µL/well and dried by suction with a vacuum pump. After that, it was dissolved in 25 μL of water, 75 μL of Glucose assay reagent (manufactured by Sigma-Aldrich) was added, and the solution was left to stand at 37° C. for 1 hour. Absorbance at 340 nm was then measured with a plate reader Cytation 5 (manufactured by Bio Tek Instruments) and the amount of glucose estimated.

[3] = test system: trehalase derived from pig kidney; assay: Degradation by trehalase derived from pig kidney (glucose release); format: in vitro ADME; conditions: 0.01 mM to 10 mM substrate, 0.24 units/mL, pH 5.7, 37° C., 20 minutes
Experimental: Trehalose (TRH) or the 4-trehalosamine (4TA) from the <Purification process> of production example 10 was added to and mixed with 135 mM sodium citrate buffer solution (pH 5.7) so that the final concentration was 0 mM, 0.01 mM, 0.1 mM, 1 mM, or 10 mM. Into them, trehalase derived from pig kidney (0.24 units/mL, manufactured by Sigma-Aldrich) was added and left to react at 37° C. for 20 minutes. Into the solution after reaction, a triple amount of Glucose assay reagent (manufactured by Sigma-Aldrich) was added and left to react at room temperature for 15 minutes. After that, absorbance at 340 nm was measured with a plate reader Cytation 5 (manufactured by Bio Tek Instruments) and the amount of glucose released as degradation product was estimated. FIG. 19B is a zoomed-in view of FIG. 19A.

[4] = test system: human ovarian cancer cells OVK18 and human malignant melanoma cells Mewo; assay: Autophagy inducing effect on cultured cells (western blotting of autophagy-related proteins); format: cell-based; conditions: 24 hours treatment, western blotting
Experimental: Expression and phosphorylation patterns of autophagy-related proteins when human ovarian cancer cells or human malignant melanoma cells were treated with 4-trehalosamine and trehalose analog for 24 hours were determined by western blotting.
Human ovarian cancer cells OVK18 (obtained from RIKEN BRC) and human malignant melanoma cells Mewo (JCRB0066) were each inoculated on a 12-well microplate at 8×10^4 cells/mL/well and cultured in DMEM culture medium at 37° C. for 72 hours, after which they were treated with test samples.
The test samples used were the 4-trehalosamine (4TA) obtained in the <Purification process> of production example 10, trehalose (TRH), the IMCTA-Cn compounds obtained in synthesis examples 1 to 8, trehalose ester (TRH-Cn) (manufactured by Dojindo Laboratories), n-dodecyl-β-D-maltoside (DDM), maltose (MLT), sucrose (SCR), and rapamycin (RM). Untreated cells without addition of compounds were used as control.
In treatment with the test samples, in order to avoid contact of a compound with locally high concentration with cells, a half of the culture fluid in each well was taken, and a required amount of test sample was dissolved in it. After dissolving it sufficiently, it was returned to the original well and treated at 37° C. for 24 hours.
Subsequently, culture medium containing the test samples was removed, washed once with PBS, and dissolved with 2×SDS sample buffer not containing 2-mercaptoethanol (2-ME) or bromphenol blue (BPB). After measuring the protein concentration in the dissolved sample with a BCA protein assay kit (manufactured by Thermo Fisher Scientific), 2-ME and BPB were added and the sample was boiled for 5 minutes, which was used as a sample for western blotting.
The western blotting was performed in a similar manner to test example 4 except that anti-LC3 antibody, which is a marker for autophagy, anti-p62, anti-cathepsin D antibody, anti-Phospho-Akt (Ser473) antibody, anti-Akt antibody, anti-Phospho-p70 S6K (T389) antibody, and anti-p70 S6K antibody (all manufactured by Cell Signaling Technology) were used at 1/2,000 dilution as the primary antibodies in the method described in test example 4.
The results for human ovarian cancer cells OVK18 are shown in FIGS. 20A to 20C, and the results for human malignant melanoma cells Mewo are shown in FIGS. 20D to 20F. In FIGS. 20A, 20B, 20D, and 20E, “PCD” denotes precursors of cathepsin D and “CD-HC” denotes cathepsin D heavy chain.

SMILES	aggregate of Q74 and aggregate of SynA53T [1]	change in blood glucose level [2]	degradation by pig trehalase (release of glucose) [3]	expression of LC3-II (autophagy marker) [4]
N[C@H]1[C@H](O)[C@@H](O)[C@@H](O[C@H]2O[C@H](CO)[C@@H](O)[C@H](O)[C@H]2O)O[C@@H]1CO [4-trehalosamine]	significantly decreased	no elevation in the blood glucose level was observed	not degraded by pig trehalase	elevated expression of LC3-II
OC[C@H]1O[C@@](CO)(O[C@H]2O[C@H](CO)[C@@H](O)[C@H](O)[C@H]2O)[C@@H](O)[C@@H]1O [sucrose]	–	–	–	expression of LC3-II was also observed
OC[C@H]1O[C@H](O[C@H]2O[C@H](CO)[C@@H](O)[C@H](O)[C@H]2O)[C@H](O)[C@@H](O)[C@@H]1O [trehalose, reference compound]	significantly decreased	elevation in the blood glucose level was observed 30 minutes to 1 hour after administration	degraded in this reaction and release of glucose was observed	–
